Earlier results as cited in US20210330638A1, “NANO-PENETRATIVE CANNABINOID OIL BLENDS AND COMPOSITIONS AND METHODS OF FORMULATION THEREOF” (Theragun, Inc., priority 2020, published 2021).

Details: in vivo

SMILES: CC1=CCC2CC1C2(C)C (stereo not drawn) [a-Pinene, alpha-pinene]
- pulmonary uptake: 60%
